Reference: publication PMC5423977, “Safety, pharmacokinetics, and pharmacodynamics of BMS-986142, a novel reversible BTK inhibitor, in healthy participants” (European Journal of Clinical Pharmacology, 2017)

Key:
[1] = Safety and tolerability (adverse events), Study 1 MAD in healthy participants; assay type: in vivo, human
[2] = 12-lead ECG, baseline-corrected QTcF; assay type: in vivo, human; settings: for Maximum change from baseline in QTcF interval >30-≤60 msec / Maximum change from baseline in QTcF interval >60 msec / Maximum change from baseline in QTcF interval ≤30 msec: n = 6
Protocol: Participants were monitored for adverse events (AEs) throughout the study. Clinical laboratory tests, vital sign measurements, 12-lead ECGs, and physical examinations were performed at selected times throughout the dosing interval. Safety data was recorded in the participants’ medical records, and assessments were performed for emergent AEs or serious AEs (SAEs). For all AEs, causal relationship to the study drug was determined by an investigator. QT signals obtained from 12-lead ECGs were corrected by heart rate using Fridericia’s formula (QTcF). Baseline-corrected QTcF (∆QTcF) were evaluated to determine QT elongation.

[3] = Study 1 MAD group, BMS-986142-treated
[4] = Study 1 MAD, all BMS-986142 doses, n = 24

## Cc1c(-c2c(F)cc(C(N)=O)c3[nH]c4c(c23)CC[C@H](C(C)(C)O)C4)cccc1-n1c(=O)c2cccc(F)c2n(C)c1=O [BMS-986142, 6-fluoro-5-(R)-(3-(S)-(8-fluoro-1-methyl-2,4-dioxo-1,2-dihydroquinazolin-3(4H)-yl)-2-methylphenyl)-2-(S)-(2-hydroxypropan-2-yl)-2,3,4,9-tetrahydro-1H-carbazole-8-carboxamide]
[1]; MAD 25 mg QD, n = 6
  AE SOC: Ear and labyrinth disorders: 0 n (%)
  AE SOC: Eye disorders: 1 (16.7) n (%)
  AE SOC: Gastrointestinal Disorders: 0 n (%)
  AE SOC: Infections and infestations: 0 n (%)
  AE SOC: Injury, poisoning and procedural complications: 1 (16.7) n (%)
  AE SOC: Investigations: 0 n (%)
  AE SOC: Musculoskeletal and connective tissue disorders: 0 n (%)
  AE SOC: Nervous system disorders: 0 n (%)
  AE SOC: Psychiatric disorders: 0 n (%)
  AE SOC: Respiratory, thoracic and mediastinal disorders: 1 (16.7) n (%)
  AE SOC: Skin and subcutaneous tissue disorders: 0 n (%)
  AE: Abdominal pain: 0 n (%)
  AE: Back pain: 0 n (%)
  AE: Blood creatinine phosphokinase increased: 0 n (%)
  AE: Cerumen impaction: 0 n (%)
  AE: Cough: 1 (16.7) n (%)
  AE: Diarrhoea: 0 n (%)
  AE: Eye pain: 1 (16.7) n (%)
  AE: Haemoptysis: 0 n (%)
  AE: Headache: 0 n (%)
  AE: Psychotic disorder: 0 n (%)
  AE: Rash: 0 n (%)
  AE: Somnolence: 0 n (%)
  AE: Syncope: 0 n (%)
  AE: Thermal burn: 1 (16.7) n (%)
  AE: Throat irritation: 0 n (%)
  AE: Upper respiratory tract infection: 0 n (%)
  Total subjects with an event: 2 (33.3) n (%)
[1]; MAD 75 mg QD, n = 6
  AE SOC: Ear and labyrinth disorders: 1 (16.7) n (%)
  AE SOC: Eye disorders: 0 n (%)
  AE SOC: Gastrointestinal Disorders: 2 (33.3) n (%)
  AE SOC: Infections and infestations: 0 n (%)
  AE SOC: Injury, poisoning and procedural complications: 0 n (%)
  AE SOC: Investigations: 0 n (%)
  AE SOC: Musculoskeletal and connective tissue disorders: 0 n (%)
  AE SOC: Nervous system disorders: 1 (16.7) n (%)
  AE SOC: Psychiatric disorders: 1 (16.7) n (%)
  AE SOC: Respiratory, thoracic and mediastinal disorders: 1 (16.7) n (%)
  AE SOC: Skin and subcutaneous tissue disorders: 0 n (%)
  AE: Abdominal pain: 1 (16.7) n (%)
  AE: Back pain: 0 n (%)
  AE: Blood creatinine phosphokinase increased: 0 n (%)
  AE: Cerumen impaction: 1 (16.7) n (%)
  AE: Cough: 0 n (%)
  AE: Diarrhoea: 1 (16.7) n (%)
  AE: Eye pain: 0 n (%)
  AE: Haemoptysis: 1 (16.7) n (%)
  AE: Headache: 1 (16.7) n (%)
  AE: Psychotic disorder: 1 (16.7) n (%)
  AE: Rash: 0 n (%)
  AE: Somnolence: 0 n (%)
  AE: Syncope: 0 n (%)
  AE: Thermal burn: 0 n (%)
  AE: Throat irritation: 1 (16.7) n (%)
  AE: Upper respiratory tract infection: 0 n (%)
  Total subjects with an event: 4 (66.7) n (%)
[1]; MAD 200 mg QD, n = 6
  AE SOC: Ear and labyrinth disorders: 0 n (%)
  AE SOC: Eye disorders: 0 n (%)
  AE SOC: Gastrointestinal Disorders: 0 n (%)
  AE SOC: Infections and infestations: 1 (16.7) n (%)
  AE SOC: Injury, poisoning and procedural complications: 0 n (%)
  AE SOC: Investigations: 0 n (%)
  AE SOC: Musculoskeletal and connective tissue disorders: 1 (16.7) n (%)
  AE SOC: Nervous system disorders: 0 n (%)
  AE SOC: Psychiatric disorders: 0 n (%)
  AE SOC: Respiratory, thoracic and mediastinal disorders: 0 n (%)
  AE SOC: Skin and subcutaneous tissue disorders: 0 n (%)
  AE: Abdominal pain: 0 n (%)
  AE: Back pain: 1 (16.7) n (%)
  AE: Blood creatinine phosphokinase increased: 0 n (%)
  AE: Cerumen impaction: 0 n (%)
  AE: Cough: 0 n (%)
  AE: Diarrhoea: 0 n (%)
  AE: Eye pain: 0 n (%)
  AE: Haemoptysis: 0 n (%)
  AE: Headache: 0 n (%)
  AE: Psychotic disorder: 0 n (%)
  AE: Rash: 0 n (%)
  AE: Somnolence: 0 n (%)
  AE: Syncope: 0 n (%)
  AE: Thermal burn: 0 n (%)
  AE: Throat irritation: 0 n (%)
  AE: Upper respiratory tract infection: 1 (16.7) n (%)
  Total subjects with an event: 1 (16.7) n (%)
[1]; MAD 350 mg QD, n = 6
  AE SOC: Ear and labyrinth disorders: 0 n (%)
  AE SOC: Eye disorders: 0 n (%)
  AE SOC: Gastrointestinal Disorders: 0 n (%)
  AE SOC: Infections and infestations: 0 n (%)
  AE SOC: Injury, poisoning and procedural complications: 0 n (%)
  AE SOC: Investigations: 0 n (%)
  AE SOC: Musculoskeletal and connective tissue disorders: 0 n (%)
  AE SOC: Nervous system disorders: 0 n (%)
  AE SOC: Psychiatric disorders: 0 n (%)
  AE SOC: Respiratory, thoracic and mediastinal disorders: 0 n (%)
  AE SOC: Skin and subcutaneous tissue disorders: 1 (16.7) n (%)
  AE: Abdominal pain: 0 n (%)
  AE: Back pain: 0 n (%)
  AE: Blood creatinine phosphokinase increased: 0 n (%)
  AE: Cerumen impaction: 0 n (%)
  AE: Cough: 0 n (%)
  AE: Diarrhoea: 0 n (%)
  AE: Eye pain: 0 n (%)
  AE: Haemoptysis: 0 n (%)
  AE: Headache: 0 n (%)
  AE: Psychotic disorder: 0 n (%)
  AE: Rash: 1 (16.7) n (%)
  AE: Somnolence: 0 n (%)
  AE: Syncope: 0 n (%)
  AE: Thermal burn: 0 n (%)
  AE: Throat irritation: 0 n (%)
  AE: Upper respiratory tract infection: 0 n (%)
  Total subjects with an event: 1 (16.7) n (%)
[1]; MAD any dose, n = 24
  AE SOC: Ear and labyrinth disorders: 1 (4.2) n (%)
  AE SOC: Eye disorders: 1 (4.2) n (%)
  AE SOC: Gastrointestinal Disorders: 2 (8.3) n (%)
  AE SOC: Infections and infestations: 1 (4.2) n (%)
  AE SOC: Injury, poisoning and procedural complications: 1 (4.2) n (%)
  AE SOC: Investigations: 0 n (%)
  AE SOC: Musculoskeletal and connective tissue disorders: 1 (4.2) n (%)
  AE SOC: Nervous system disorders: 1 (4.2) n (%)
  AE SOC: Psychiatric disorders: 1 (4.2) n (%)
  AE SOC: Respiratory, thoracic and mediastinal disorders: 2 (8.3) n (%)
  AE SOC: Skin and subcutaneous tissue disorders: 1 (4.2) n (%)
  AE: Abdominal pain: 1 (4.2) n (%)
  AE: Back pain: 1 (4.2) n (%)
  AE: Blood creatinine phosphokinase increased: 0 n (%)
  AE: Cerumen impaction: 1 (4.2) n (%)
  AE: Cough: 1 (4.2) n (%)
  AE: Diarrhoea: 1 (4.2) n (%)
  AE: Eye pain: 1 (4.2) n (%)
  AE: Haemoptysis: 1 (4.2) n (%)
  AE: Headache: 1 (4.2) n (%)
  AE: Psychotic disorder: 1 (4.2) n (%)
  AE: Rash: 1 (4.2) n (%)
  AE: Somnolence: 0 n (%)
  AE: Syncope: 0 n (%)
  AE: Thermal burn: 1 (4.2) n (%)
  AE: Throat irritation: 1 (4.2) n (%)
  AE: Upper respiratory tract infection: 1 (4.2) n (%)
  Total subjects with an event: 8 (33.3) n (%)
[1]; [3]
  Number of AEs reported: 13 AEs
  Participants with AEs: 8 participants
[1]; [4]
  AE: Cough: 1 (4.2) n (%)
  AE: Diarrhea: 1 (4.2) n (%)
  AE: Dizziness: 0 n (%)
  AE: Headache/tension headache: 1 (4.2) n (%)
  AE: Nausea: 0 n (%)
  AE: Thermal burns: 1 (4.2) n (%)
  AE: Upper respiratory tract infection: 1 (4.2) n (%)
  Subjects with AEs: 8 (33.3) n (%)
[2]; MAD 25 mg
  Maximum change from baseline in QTcF interval >30-≤60 msec: 0 N (%)
  Maximum change from baseline in QTcF interval >60 msec: 0 N (%)
  Maximum change from baseline in QTcF interval ≤30 msec: 6 (100) N (%)
[2]; MAD 75 mg
  Maximum change from baseline in QTcF interval >30-≤60 msec: 0 N (%)
  Maximum change from baseline in QTcF interval >60 msec: 0 N (%)
  Maximum change from baseline in QTcF interval ≤30 msec: 6 (100) N (%)
[2]; MAD 200 mg
  Maximum change from baseline in QTcF interval >30-≤60 msec: 0 N (%)
  Maximum change from baseline in QTcF interval >60 msec: 0 N (%)
  Maximum change from baseline in QTcF interval ≤30 msec: 6 (100) N (%)
[2]; MAD 350 mg
  Maximum change from baseline in QTcF interval >30-≤60 msec: 0 N (%)
  Maximum change from baseline in QTcF interval >60 msec: 0 N (%)
  Maximum change from baseline in QTcF interval ≤30 msec: 6 (100) N (%)
[2]; SAD 5 mg
  Maximum change from baseline in QTcF interval >30-≤60 msec: 0 N (%)
  Maximum change from baseline in QTcF interval >60 msec: 0 N (%)
  Maximum change from baseline in QTcF interval ≤30 msec: 6 (100) N (%)
[2]; SAD 15 mg
  Maximum change from baseline in QTcF interval >30-≤60 msec: 0 N (%)
  Maximum change from baseline in QTcF interval >60 msec: 0 N (%)
  Maximum change from baseline in QTcF interval ≤30 msec: 6 (100) N (%)
[2]; SAD 50 mg
  Maximum change from baseline in QTcF interval >30-≤60 msec: 0 N (%)
  Maximum change from baseline in QTcF interval >60 msec: 0 N (%)
  Maximum change from baseline in QTcF interval ≤30 msec: 6 (100) N (%)
[2]; SAD 100 mg
  Maximum change from baseline in QTcF interval >30-≤60 msec: 0 N (%)
  Maximum change from baseline in QTcF interval >60 msec: 0 N (%)
  Maximum change from baseline in QTcF interval ≤30 msec: 6 (100) N (%)
[2]; SAD 300 mg
  Maximum change from baseline in QTcF interval >30-≤60 msec: 0 N (%)
  Maximum change from baseline in QTcF interval >60 msec: 0 N (%)
  Maximum change from baseline in QTcF interval ≤30 msec: 6 (100) N (%)
[2]; SAD 900 mg
  Maximum change from baseline in QTcF interval >30-≤60 msec: 0 N (%)
  Maximum change from baseline in QTcF interval >60 msec: 0 N (%)
  Maximum change from baseline in QTcF interval ≤30 msec: 6 (100) N (%)
[2]; SAD and MAD
  Increase from baseline in maximum post-dose QTcF: No participants showed greater than 30 ms increase from baseline
